Structures can show the parent of a compound that is named as a salt.
Key:
[1] = system: Ischemic and Nonischemic Isolated Rat Heart; assay: Isolated perfused rat heart (Langendorff), global ischemia/reperfusion: cardiac function, flow and LDH release; design: species or system rat (male Sprague-Dawley); FLOW (coronary blood flow): unit not given here; details: for DP (Double Product, HR x LVDP / 1,000) / FLOW (coronary blood flow) / HR (Heart Rate) / LVDP (Left Ventricular Developed Pressure) / LDH (Lactate Dehydrogenase Release) / LDH/DP / cardioprotection compared with diltiazem: 1 μM; for LDH (Lactate Dehydrogenase Release): Postischemia, cumulative over 30 min reperfusion, per g preischemia heart weight, lower = greater cardioprotection; for LDH/DP: ratio of cardioprotection to cardiodepression, lower = greater selectivity; for cardioprotection compared with diltiazem: post-ischemia LDH
Description: Lactate dehydrogenase is an enzyme released in the heart during an ischemic event and is an index of cardiac cell necrosis. In the Grover et al. model, this is measured during reperfusion and an agent which provides for lower release levels of LDH is considered to offer greater cardioprotection since lower LDH indicates a smaller infarct size. Cardiac function is determined using the double product (DP) of heart rate times the left ventricular developed pressure (LVDP) divided by 1,000.
The lower the value for DP before ischemia for a given agent, the more cardiodepressant it is considered to be.
Male Sprague-Dawley rats (450-550 g) were used in all experiments. The rats were anesthetized using 30 mg/kg sodium pentobarbital (i.p.). They were intubated and then treated with i.v. heparin (1000 U/kg). While being mechanically ventilated, their hearts were perfused in situ via retrograde cannulation of the aorta. The hearts were then excised and quickly moved to a Langendorff apparatus where they were perfused with Krebs-Henseleit bicarbonate buffer (112 mM NaCl, 5 mM KCl, 1.2 mMMg SO4, 1 mM KH2 PO4, 1.25 mM CaCl2, 11.5 mM dextrose, and 2 mM pyruvate) at a constant pressure (75 mm Hg). A water filled latex balloon attached to a metal cannula was then inserted into the left ventricle and connected to a Statham pressure transducer for measurement of left ventricular pressure. The hearts were allowed to equilibrate for 15 minutes at which time end diastolic pressure (EDP) was adjusted to 5 mm Hg and this was maintained for 5 minutes. Pre-ischemia or pre-drug function, heart rate and coronary blood flow (extracorporeal electromagnetic flow probe, Carolina Medical Electronics, King, N.C.) were then measured. Cardiac function was determined using the double product of heart rate (HR) times left ventricular developed pressure (LVDP) divided by 1,000.
All of these hearts were treated with their respective drugs or vehicle for ten minutes. At this time, post-drug cardiac function and flow were measured and then the hearts were made globally ischemic by shutting off the buffer perfusion. The ischemia was maintained for 25 minutes at which time reperfusion with nondrug treated buffer was instituted. Reperfusion was maintained for 30 minutes and at this time reperfusion function and flow were again determined.
At the end of the reperfusion period, the reperfusion buffer was sampled for cumulative LDH release as previously described. LDH release was expressed as U/g preischemia heart weight for the 30 minute collection period. LDH release is a sensitive index for loss of cell viability. Determination of the relationship between pre-ischemic, post-drug cardiac function was made by dividing the double product (HR ×LVDP/1000) by the cumulative LDH release.
All data were analyzed using a one way analysis of variance. Multiple comparisons were done using the Duncan procedure. All data are expressed as the mean±SE.
The pre-ischemia DP values are a measure of the cardiodepression of the drug on the healthy cardiac tissue.
The post-ischemia LDH values are a measure of the cardioprotection or anti-ischemic activity of the drug. In this case, lower values indicate greater anti-ischemic activity or greater cardioprotection.
The LDH/DP values are the ratio of cardioprotection to cardiodepression, the lower values indicating a greater selectivity for anti-ischemic activity.
The post-ischemia DP indicates cardiodepression after the ischemic episode and the lower DP values here are indicative of agents which still remained in the cardiac tissue for more than 30 minutes post ischemia. [drawing 16]

rabbit aorta = assay: Reduction of tone of rabbit aorta by high potassium (Vasc. Ca^++ Block); type: cell-based; details: Oryctolagus cuniculus; read-out: IC50 in reducing tone of rabbit aorta by high potassium (Vasc. Ca^++ Block)
Text: |(SAPA), in reducing maximum upstroke velocity (Vmax) |and in reducing tone of rabbit aorta by high potassium |(Vasc. Ca^++ Block)

[2] = system: isolated canine cardiac Purkinje fibers; assay: Calcium-dependent slow response action potential amplitude (SAPA), standard microelectrode techniques; type: cell-based; details: Canis lupus familiaris, read-out: IC50 in reducing slow response action potential amplitude (SAPA)
Description: (§1) The calcium channel blocking and sodium entry blocking activities of compounds of the present invention were tested using standard microelectrode techniques in isolated canine cardiac Purkinje fibers as reported in J. L. Bergey et al., "Antiarrhythmic, hemodynamic, and cardiac electrophysiological evaluation of N-(2,6-dimethylphenyl)-N'-[3-(1-methylethylamino)propyl]-urea), (Wy 42,362)", Arzneim -Forsch, 33:1258, 1983). […] Depression of this parameter indicates depression of calcium entry into cardiac tissue. […] Significant depression of the upstroke velocity (vmax) indicates the blocking of sodium entry into cardiac tissue.

[3] = system: isolated canine cardiac Purkinje fibers; assay: Normal action potential parameters incl. upstroke velocity (Vmax; sodium entry), standard microelectrode techniques; type: cell-based; details: for Vmax (velocity of upstroke): in V/s (unit assumed)
Description: as §1

[4] = Postischemia (30 min.), occlusion 25 minutes, reperfusion 30 minutes
[5] = Preischemia (Post Drug), lower = more cardiodepressant

Row | Structure (SMILES) | DP (Double Product, HR x LVDP / 1,000) [1, 4] | FLOW (coronary blood flow) [1, 4] | HR (Heart Rate) [1, 4] | LVDP (Left Ventricular Developed Pressure) [1, 4] | LDH (Lactate Dehydrogenase Release) [1] | FLOW (coronary blood flow) ([1]; Preischemia (Post Drug)) | HR (Heart Rate) ([1]; Preischemia (Post Drug)) | LVDP (Left Ventricular Developed Pressure) ([1]; Preischemia (Post Drug)) | DP (Double Product, HR x LVDP / 1,000) [1, 5] | LDH/DP [1] | other results
1 | CN(C)CCCCN(C(=O)Cc1ccccc1)c1ccccc1SCc1ccccc1 [Example 5, N-[4-(Dimethylamino)butyl]-N-[2-[(phenylmethyl)thio]phenyl]benzeneacetamideoxalate (1:1) salt] | 10 | 11 | 180 beats/min | 51 mmHg | 16.5 U/g | 15 | 253 beats/min | 115 mmHg | 29 | 0.57 | –
2 | CN(C)CCCCN(C(=O)C=Cc1ccccc1)c1ccccc1SCc1ccccc1 [Example 24, N-[4-(Dimethylamino)butyl]-3-phenyl-N-[2-[(phenylmethyl)thio]phenyl]-2-propenamide, oxalate salt (1:1)] | – | – | – | – | – | – | – | – | – | – | IC50 (rabbit aorta): 1.2 µM; IC50 [2]: 2.6 µM
3 | CN(C)CCN(C(=O)Cc1ccccc1)c1ccccc1SCc1ccccc1.Cl [Example 4, N-[2-(Dimethylamino)ethyl]-N-[2-[(phenylmethyl)thio]phenyl]benzeneacetamide, monohydrochloride] | 15 | 15 | 239 beats/min | 60 mmHg | 21 U/g | 20 | 236 beats/min | 123 mmHg | 30 | 0.79 | –
4 | COc1ccc(CSc2ccccc2N(CCCN(C)C)C(=O)Cc2ccccc2)cc1 [Example 2, N-[3-(Dimethylamino)propyl]-N-[2-[[(4-methoxyphenyl)methyl]thio]phenyl]benzeneacetamide, monohydrochloride] | 14 | 11 | 188 beats/min | 73 mmHg | 8.9 U/g | 20 | 219 beats/min | 135 mmHg | 29 | 0.30 | –
5 | COc1cc(SCc2ccccc2)c(N(CCCN(C)C)C(=O)Cc2ccccc2)cc1OC [Example 8, N-[3-(Dimethylamino)propyl]-N-[4,5-dimethoxy-2-sulfonyl),[(phenylmethyl)thio]phenyl]benzeneacetamide, oxalate (1:1) salt] | 17 | 8 | 246 beats/min | 71 mmHg | 3.7 U/g | 19 | 216 beats/min | 65 mmHg | 14 | 0.26 | –
6 | CN(C)CCCN(C(=O)Cc1ccccc1)c1ccccc1OCc1ccccc1.O=C(O)C(=O)O [Example 6, N-[3-(Dimethylamino)propyl]-N-[2-(phenylmethoxy)phenyl]benzeneacetamide, oxalate salt (1:1)] | 20 | 10 | 222 beats/min | 89 mmHg | 5.7 U/g | 15 | 230 beats/min | 113 mmHg | 26 | 0.22 | –
7 | CN(C)CCCN(C(=O)c1ccccc1)c1ccccc1SCc1ccccc1.Cl [Example 7, 2'-(Benzylthio)-N-[3-(dimethylamino)propyl]benzanilide, hydrochloride] | 15 | 8 | 220 beats/min | 72 mmHg | 6.7 U/g | 11 | 218 beats/min | 132 mmHg | 29 | 0.24 | –
8 | COc1ccc([C@@H]2Sc3ccccc3N(CCN(C)C)C(=O)[C@@H]2OC(C)=O)cc1 [Diltiazem, reference compound] | 24 | 17 | 231 beats/min | 104 mmHg | 10 U/g | 22 | 217 beats/min | 45 mmHg | 10 | 0.98 | ischemic selectivity among diltiazem, nifedipine and verapamil ([1]; Grover et al. methodology): greatest ischemic selectivity
9 | COc1ccc(CSc2cc(Cl)ccc2N(CCCN(C)C)C(=O)Cc2ccccc2)cc1.Cl [Example 9, N-[3-(Dimethylamino)propyl]-N-[4-chloro-2-[[(4-methoxyphenyl)methyl]thio]phenyl]benzeneacetamide, monohydrochloride] | 11 | 9 | 214 beats/min | 52 mmHg | 8.2 U/g | 18 | 226 beats/min | 126 mmHg | 29 | 0.29 | cardioprotection compared with diltiazem [1]: comparable to diltiazem in cardioprotection
10 | CN(C)CCCN(C(=O)Cc1ccccc1)c1ccccc1SCc1ccccc1.Cl [Example 3, N-[3-(Dimethylamino)propyl]-N-[2-[(phenylmethyl)thio]phenyl]benzeneacetamide, monohydrochloride] | 22 | 11 | 238 beats/min | 93 mmHg | 5.2 U/g | 18 | 243 beats/min | 79 mmHg | 19 | 0.30 | APD 50 (action potential duration @ 50% repolarization) ([3]; 1 × 10^-5): 123 ± 2; APD90 (action potential duration @ 90% repolarization) ([3]; 1 × 10^-5): 271 ± 8; PP (peak potential) ([3]; 1 × 10^-5): 7 ± 1; RP (resting potential) ([3]; 1 × 10^-5): 84 ± 1; Vmax (velocity of upstroke) ([3]; 1 × 10^-5): 156 ± 11; APD 50 (action potential duration @ 50% repolarization) ([3]; 1 × 10^-6): 181 ± 5; APD90 (action potential duration @ 90% repolarization) ([3]; 1 × 10^-6): 282 ± 2; PP (peak potential) ([3]; 1 × 10^-6): 32 ± 1; RP (resting potential) ([3]; 1 × 10^-6): 88 ± 1; Vmax (velocity of upstroke) ([3]; 1 × 10^-6): 401 ± 16; APD 50 (action potential duration @ 50% repolarization) ([3]; 3 × 10^-6): 125 ± 3; APD90 (action potential duration @ 90% repolarization) ([3]; 3 × 10^-6): 251 ± 1; PP (peak potential) ([3]; 3 × 10^-6): 26 ± 1; RP (resting potential) ([3]; 3 × 10^-6): 88 ± 1; Vmax (velocity of upstroke) ([3]; 3 × 10^-6): 286 ± 9; IC50 ([3]; Canis lupus familiaris, purkinje, sodium entry, read-out: IC50 in reducing maximum upstroke velocity (Vmax)): 3.8 µM; IC50 (rabbit aorta): 1.7 µM; cardioprotection compared with diltiazem [1]: offered more cardioprotection than diltiazem; IC50 [2]: 1.5 µM
